Experimental data reported in patent EP2599480A1 (priority 2011, dated 2013).
Where two headings read alike, the source gives them in different places.

Columns and labels:
[1] = target: NA of influenza virus A/PR/8/34 (Influenza A virus, UniProt P03468); assay: biochemical; set-up: species or system H1N1 influenza virus A/Puerto Rico/8/34
in vitro = conditions: dog; for CC50 at 72 h: mdck
[2] = system: NA of influenza virus A/Jena/5528/09; assay type: biochemical, clinical H1N1 isolate A/Jena/5528/09
[3] = system: NA of influenza virus A/Jena/5555/09; assay type: biochemical, clinical H1N1 isolate A/Jena/5555/09

Chain of NA of influenza virus A/PR/8/34 (P03468 whole entry, looked up): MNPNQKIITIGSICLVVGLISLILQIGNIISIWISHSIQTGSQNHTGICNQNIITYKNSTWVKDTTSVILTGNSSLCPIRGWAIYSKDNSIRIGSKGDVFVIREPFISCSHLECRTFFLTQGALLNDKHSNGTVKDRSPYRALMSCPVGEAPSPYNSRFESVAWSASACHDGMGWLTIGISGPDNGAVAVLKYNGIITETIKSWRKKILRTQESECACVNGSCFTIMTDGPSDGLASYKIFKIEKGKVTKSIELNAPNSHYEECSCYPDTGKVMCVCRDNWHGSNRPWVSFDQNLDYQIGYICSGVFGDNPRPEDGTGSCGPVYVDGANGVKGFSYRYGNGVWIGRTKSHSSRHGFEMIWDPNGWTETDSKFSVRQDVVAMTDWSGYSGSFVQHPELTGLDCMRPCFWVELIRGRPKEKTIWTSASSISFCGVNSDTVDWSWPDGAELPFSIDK

Row | SMILES | CC50 at 72 h (in vitro) | further results
1 | Cc1ccc(S(=O)(=O)Oc2cc(S(=O)(=O)O)cc3cc(S(=O)(=O)O)cc(N)c23)cc1 [NCI compound 16168] |  | IC50 ([1]; IC50 for A/PR/8/34): 5.91 µM; CC50 (in vitro): > 100 µM
2 | O=C(Nc1cc(S(=O)(=O)O)cc2cc(S(=O)(=O)O)cc(O)c12)c1ccccc1 [NCI compound 16169] |  | CC50 (in vitro): > 100 µM
3 | Nc1c(N=Nc2ccc(S(=O)(=O)Nc3ccccn3)cc2)cc(S(=O)(=O)O)c2ccccc12 [NCI compound 30456] |  | IC50 [1]: < 0.12 µM
4 | Nc1c(N=Nc2ccc(S(=O)(=O)Nc3nccs3)cc2)cc(S(=O)(=O)O)c2ccccc12 [NCI compound 31348] | > 100 µM | 
5 | O=C(Nc1cc(S(=O)(=O)O)cc2cc(S(=O)(=O)O)ccc12)c1ccccc1 [NCI compound 37172] |  | CC50 (in vitro): > 100 µM
6 | Nc1ccc(C(=O)Nc2cc(S(=O)(=O)O)cc3cccc(O)c23)cc1 [NCI compound 37176] |  | CC50 (in vitro): > 100 µM
7 | Nc1ccc(C(=O)Nc2cc(S(=O)(=O)O)cc3cc(S(=O)(=O)O)ccc23)cc1 [NCI compound 37180] |  | CC50 (in vitro): > 100 µM
8 | CN(C)c1ccc(C=Nc2cc(S(=O)(=O)O)cc3cc(S(=O)(=O)O)cc(O)c23)cc1 [NCI compound 37200] | > 100 µM | IC50 [2]: 1.18 µM; IC50 [3]: 0.94 µM
9 | CCOc1ccc(N=Nc2ccc(C=Nc3ccc4c(O)cc(S(=O)(=O)O)cc4c3)cc2)cc1 [NCI compound 37220] | > 100 µM | IC50 ([1]; IC50 for A/PR/8/34): 0.42 µM
10 | Nc1ccc(C(=O)Nc2ccc(S(=O)(=O)O)c3cccc(O)c23)cc1 [NCI compound 37609] | > 100 µM | 
11 | O=[N+]([O-])c1ccc(N=Nc2c(O)ccc3cc(S(=O)(=O)O)ccc23)cc1 [NCI compound 45538] | > 100 µM | 
12 | O=[N+]([O-])c1ccc(N=Nc2c(O)ccc3cc(S(=O)(=O)O)cc(S(=O)(=O)O)c23)cc1 [NCI compound 45539] | > 100 µM | 
13 | O=[N+]([O-])c1ccc(N=Nc2c(O)c(S(=O)(=O)O)cc3cc(S(=O)(=O)O)ccc23)cc1 [NCI compound 45540] | > 100 µM | 
14 | O=[N+]([O-])c1cccc(N=Nc2c(O)c(S(=O)(=O)O)cc3cc(S(=O)(=O)O)ccc23)c1 [NCI compound 45541] | > 100 µM | 
15 | O=S(=O)(O)c1cc2cccc(S(=O)(=O)O)c2c(O)c1N=Nc1ccccc1 [NCI compound 45549] | > 100 µM | IC50 ([1]; IC50 for A/PR/8/34): 4.85 µM
16 | O=S(=O)(O)c1ccc2c(N=Nc3ccc(N=Nc4ccccc4)cc3)c(O)ccc2c1 [NCI compound 65545] | > 100 µM | IC50 [2]: 0.11 µM; IC50 [3]: 0.24 µM
17 | Cc1cc(S(=O)(=O)O)ccc1N=Nc1ccc(N=Nc2c(O)ccc3ccccc23)c(C)c1 [NCI compound 66221] |  | IC50 ([1]; IC50 for A/PR/8/34): 0.29 µM

Row | SMILES | CC50 at 72 h (in vitro) | further results
18 | CC(=O)Nc1cc(S(=O)(=O)O)cc2cc(S(=O)(=O)O)cc(O)c12 [NCI compound 74489] | > 100 µM | 
19 | O=S(=O)(O)c1ccc2cc(N=Nc3cc(S(=O)(=O)O)c4cccnc4c3O)ccc2c1 [NCI compound 87877] | > 100 µM | IC50 [2]: 1.74 µM; IC50 [3]: 1.55 µM
20 | CCCCCC(=O)Nc1cc(S(=O)(=O)O)cc2cc(S(=O)(=O)O)cc(O)c12 [NCI compound 97290] | > 100 µM | 
21 | Cc1nnc(NS(=O)(=O)c2ccc(N=Nc3c(O)c(C(=O)O)cc4ccccc34)cc2)s1 [NCI compound 134131] | > 100 µM | 
22 | CC1NOC(NS(=O)(=O)c2ccc(N=Nc3c(O)c(C(=O)O)cc4ccccc34)cc2)C1C (centres unmarked) [NCI compound 134132] |  | IC50 ([1]; read-out: IC50 for A/PR/8/34): 0.64 µM
23 | Cc1cccc(NS(=O)(=O)c2ccc(N=Nc3c(O)c(C(=O)O)cc4ccccc34)cc2)n1 [NCI compound 134133] |  | IC50 [1]: < 0.12 µM
24 | O=C(O)c1cc2ccccc2c(N=Nc2ccc(S(=O)(=O)Nc3ccccn3)cc2)c1O [NCI compound 134134] |  | IC50 ([1]; IC50 for A/PR/8/34): 0.45 µM
25 | O=C(O)c1cc2ccccc2c(N=Nc2ccc(S(=O)(=O)Nc3nccs3)cc2)c1O [NCI compound 134135] | > 100 µM | IC50 [2]: 0.24 µM; IC50 [3]: 0.31 µM
26 | O=C(O)c1cc2ccccc2c(N=Nc2ccc(S(=O)(=O)Nc3ncccn3)cc2)c1O [NCI compound 134136] | > 100 µM | 
27 | O=C(O)c1cc2ccccc2c(N=Nc2ccc(S(=O)(=O)O)cc2)c1O [NCI compound 134138] | > 100 µM | IC50 [2]: 3.06 µM; IC50 [3]: 2.9 µM
28 | N=C(N)NS(=O)(=O)c1ccc(N=Nc2c(O)c(C(=O)O)cc3ccccc23)cc1 [NCI compound 134139] | > 100 µM | 
29 | Cc1cc(NS(=O)(=O)c2ccc(N=Nc3c(O)c(C(=O)O)cc4ccccc34)cc2)nc(C)n1 [NCI compound 134140] | > 100 µM | 
30 | Cc1ccc(N=Nc2c(O)c(C(=O)O)cc3ccccc23)cc1C [NCI compound 134141] | > 100 µM | 
31 | O=C(O)c1c(O)c(N=Nc2ccc(S(=O)(=O)Nc3ccccn3)cc2)cc2ccccc12 [NCI compound 134145] | > 100 µM | 
32 | Nc1cc(S(=O)(=O)O)cc2cc(S(=O)(=O)O)c(N=Nc3cc(S(=O)(=O)O)cc4cc(S(=O)(=O)O)cc(O)c34)c(O)c12 [NCI compound 162530] | > 100 µM | 
33 | O=C(O)c1cc(C(=O)CCCC(=O)c2cc(C(=O)O)c(O)c3ccccc23)c2ccccc2c1O [NCI compound 292216] | > 100 µM | 
34 | Cc1ccc(Nc2nnc(CSc3ccc(Cl)cc3)s2)c(S(=O)(=O)O)c1 [NCI compound 369693] | > 100 µM | 
